Experimental findings from ChEMBL document CHEMBL1133834, “Design and synthesis of Pfmrk inhibitors as potential antimalarial agents” (Bioorg Med Chem Lett, 2001) are described below.

The first experiment addresses T1, Protein kinase Pfmrk (Plasmodium falciparum, UniProt P90584).
T1 sequence (P90584 whole entry): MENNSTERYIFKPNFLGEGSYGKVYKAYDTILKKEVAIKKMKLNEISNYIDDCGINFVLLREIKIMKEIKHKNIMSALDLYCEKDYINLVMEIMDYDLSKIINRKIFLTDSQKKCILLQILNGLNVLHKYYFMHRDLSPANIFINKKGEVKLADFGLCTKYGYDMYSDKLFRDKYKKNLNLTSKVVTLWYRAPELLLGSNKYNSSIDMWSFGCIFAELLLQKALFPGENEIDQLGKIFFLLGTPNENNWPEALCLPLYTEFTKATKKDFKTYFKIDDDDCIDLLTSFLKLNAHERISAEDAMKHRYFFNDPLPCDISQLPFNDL
Nature of the experiment: Inhibition of Plasmodium falciparum cyclin dependent protein kinase (No inhibition).
As for `Oc1[nH]c2ccccc2c2nc3ccccc3c1-2`, the IC50 (in general, the concentration needed to halve the response being measured) is recorded as “Not Active”.
On the same count and under the same terms, then `Oc1nc2ccccc2c2oc3ccccc3c12`, with “Not Active”.

The target in another experiment is T1, Protein kinase Pfmrk. Nature of the experiment: Inhibition of Plasmodium falciparum cyclin dependent protein kinase (Pfmrk).
On to `Oc1c2ccccc2nc2oc3ccccc3c12`, for which the concentration for half-maximal inhibition (IC50) was below 371 µM.
`OCCOc1cccc(-c2cc3ccccc3nc2O)c1` had a half-maximal inhibitory concentration (IC50) of 18 µM.
The compound `Oc1ccc2nc(O)c3c4ccccc4oc3c2c1` had an IC50 of 539 µM.
Take `O=C(O)COc1cccc(-c2cc3ccccc3nc2O)c1`: the IC50 stood at 102 µM.
The same measure, in the same setting: then `Oc1ccc2nc3oc4ccccc4c3c(O)c2c1`, with 187 µM.
